Reference: patent US8609733B2, “Sensory-specific local anesthesia and prolonged duration local anesthesia” (Massachusetts Institute of Technology, priority 2008, dated 2013)
Where “and” joins values, the source holds several entries; their conditions need not be identical. Equal values may be shown once.

Legend:
Assay type in all cases: in vivo, Sprague-Dawley rats
[1] = system: sciatic nerve; assay: Duration of thermal nociceptive (sensory) block after sciatic nerve injection, modified hotplate test
Procedure: (§1) Young adult male Sprague-Dawley rats (350-420 g) were obtained from Charles River Laboratories (Wilmington, Mass.) and housed in groups of two per cage on a 6 a.m. to 6 p.m. light/dark cycle. All animals were cared for in accordance with protocols approved institutionally and nationally.
(§2) QX-314 and octyltriethylammonium bromide (OTAB) (Sigma) solutions were prepared in saline individually and in combination with each enhancer the night before scheduled injections.
(§3) Animals were cared for in compliance with protocols approved by the Massachusetts Institute of Technology (MIT) Committee on Animal Care, in conformity with the NIH guidelines for the care and use of laboratory animals (NIH publication #85-23, revised 1985). Rats were anesthetized using isoflurane in oxygen. A 25-gauge needle was introduced posteromedial to the greater trochanter, and 300 μL of the QX-314+/−enhancer solution was injected upon contacting bone. To determine the effect of QX-314 on sensory and motor blockade, animals were injected with QX-314 at different concentrations. To determine the effect of the chemical penetration enhancer (OTAB) on the sensory and motor blockade produced by QX-314, animals were injected with different concentrations of OTAB, with the concentration of QX-314 kept constant at 25 mM.
(§4) In all experiments, the experimenter was blinded as to what treatment any given rat had received. Presence and extent of nerve blockade was investigated as previously described (Kohane, et al., Anesthesiology, 89:1199-1208 (1998); Padera, et al., Muscle Nerve, 34:747-53 (2006); Kohane, et al., Anesthesiology, 89:119-31 (1998); Masters, et al., Anesthesiology, 79(2):340-346 (1993)). Briefly, thermal nociception of each leg was assessed, with the right (uninjected) leg serving as an untreated control.
(§5) Thermal nociception was assessed by a modified hotplate test. Hind paws were exposed in sequence (left then right) to a 56° C. hot plate (Model 39D Hot Plate Analgesia Meter, IITC Inc., Woodland Hills, Calif.). The time (latency) until paw withdrawal was measured with a stopwatch.
(§6) The duration of thermal nociceptive block was calculated as the time required for thermal latency to return to a value of 7 seconds from a higher value. Seven seconds is the midpoint between a baseline thermal latency of approximately 2 seconds in adult rats and a Maximal latency of 12 seconds. Latencies greater than 7 sec were considered to be effective blocks.
(§7) Methods were as described in Example 1.
(§8) To establish that the selective block could be obtained with other local anesthetics, the methods of example 1 were performed using 100 mM QX-222 and 30 mM OTAB, and compared to the results obtained using 100 mM […] and 30 mM OTAB.

[2] = system: sciatic nerve; assay: Sensory selectivity of sciatic nerve blockade (thermal nociceptive versus motor block); settings: for selective thermal nociceptive blockade as compared to motor blockade: in combination with OTAB (Example 3: 100 mM QX-222, 30 mM OTAB)
Procedure: as §3, §4, §5, §6
(§9) The rat was held with its posterior placed at a digital balance on which it could bear weight with one hindpaw at a time. The maximum weight that the rat could bear without its ankle touching the balance was measured.
as §7, §8

[3] = system: sciatic nerve; assay: Duration of motor block after sciatic nerve injection, extensor postural thrust (EPT)
Procedure: as §1, §2, §3, §4, §9, §7, §8

[4] = 25 mM QX-314 co-injected with 5 mM SOS
[5] = 25 mM QX-314 co-injected with 10 mM SOS
[6] = 25 mM QX-314 co-injected with 0.5% TWEEN 20
[7] = QX-314 without CPE, different concentrations, 300 μl

In the case of `CC[N+](CC)(CC)CC(=O)Nc1c(C)cccc1C` [QX-314, N-(2,6)dimethylphenylcarbamoylmethyl triethylammonium bromide], the sensory block [1, 4] is reported as 235 min, the sensory block [1, 5] is reported as 870 min and the “sensory DEB (duration of effective block)” value ([1]; 25 mM QX-314 co-injected with 20 mM OTAB) is reported as 428 min and 406 min. For the same molecule, the “duration of sensory block” value ([1]; 25 mM QX-314 co-injected with 30 mM OTAB) was 450 min, the median sensory blockade [1, 6] was 269 min and the “sensory duration of block versus concentration” value [1, 7] was “concentration-dependent increase”. The sensory selectivity ([2]; 25 mM QX-314 co-injected with SOS 5, 10, 20, 30 mM) was “sensory selectivity at all concentrations of SOS”, the sensory specificity ([2]; 25 mM QX-314 with higher OTAB concentrations (>30 mM)) was “no sensory specificity” and the specificity of block ([2]; 25 mM QX-314 with higher SOS concentrations (10-30 mM)) was “initially non-specific”. The “sensory versus motor block duration” value ([2]; 25 mM QX-314 with lower concentrations of OTAB (10-30 mM)) was “significant increase in sensory block duration, without a corresponding increase in motor block duration”, the modality specificity ([2]; QX-314 in the absence of a CPE) was “no evidence of modality specificity” and the “TWEEN 20 concentration of maximum sensory specificity (optimal)” value ([2]; co-injected with 25 mM QX-314) was 0.5%. The “selective thermal nociceptive blockade as compared to motor blockade” value [2] was “Comparable selective thermal nociceptive blockade”, the “SOS concentration range with sensory selectivity” value ([2]; with 25 mM QX-314) was 1 to 50 mM and the “optimal OTAB concentration for sensory selectivity” value ([2]; with 25 mM QX-314) was 20 mM. For the same molecule, the “duration of motor block” value ([3]; 25 mM QX-314 alone, 300 μL at the sciatic nerve, rat) was 165 min, the motor block [3, 4] was 0 min and the motor block [3, 5] was 532 min. For the same molecule, the motor effect ([3]; 25 mM QX-314 co-injected with 20 mM or 30 mM OTAB) was “little or no motor effect”, the median motor blockade [3, 6] was 0 min and the “motor duration of block versus concentration” value [3, 7] was “concentration-dependent increase”.
In the case of `Cc1cccc(C)c1NC(=O)C[N+](C)(C)C` [QX-222, 2-((2,6-dimethylphenyl)amino)-N,N,N-trimethyl-2-oxoethanaminium], the “selective thermal nociceptive blockade as compared to motor blockade” value [2] is reported as “Comparable selective thermal nociceptive blockade”.
